Test results taken from patent publication US20250230147A1, “LACTAMS AS CBL-B INHIBITORS” (Genentech, Inc., priority 2021, published 2025).
Counter-ions that a name gives are not always drawn.

Assays:
Cbl-b = Cbl-b (Homo sapiens (Human), UniProt Q13191); assay: Cbl-b LCK Ub TR-FRET assay (Cbl-b Lck HTRF); assay type: biochemical
Method in brief: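 TR-FRET (340 nm excitation, 615/665 nm emission) read after adding HA-ubiquitin–UBE2D2 thioester, anti-HA-D2 and streptavidin-Eu. Beforehand, compounds incubated 60 min with biotinylated Cbl-b, then 90 min with His-LCK and ATP (1 mM in 2× mix); IC50 from 10 concentrations, DMSO high and no-LCK low controls.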

c-Cbl = c-Cbl (Homo sapiens (Human), UniProt P22681); assay: C-Cbl LCK Ub TR-FRET assay (c-cbl Lck HTRF); assay type: biochemical; conditions: for (fold-selectivity): C-cbl Lck HTRF IC50 relative to Cbl-b Lck HTRF IC50
Method in brief: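 Detection reagents added, brief spin, 20 min RT. IC50 fit normalized to no-LCK (low) and DMSO (high) controls.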

Chain of Cbl-b (Q13191 40-426): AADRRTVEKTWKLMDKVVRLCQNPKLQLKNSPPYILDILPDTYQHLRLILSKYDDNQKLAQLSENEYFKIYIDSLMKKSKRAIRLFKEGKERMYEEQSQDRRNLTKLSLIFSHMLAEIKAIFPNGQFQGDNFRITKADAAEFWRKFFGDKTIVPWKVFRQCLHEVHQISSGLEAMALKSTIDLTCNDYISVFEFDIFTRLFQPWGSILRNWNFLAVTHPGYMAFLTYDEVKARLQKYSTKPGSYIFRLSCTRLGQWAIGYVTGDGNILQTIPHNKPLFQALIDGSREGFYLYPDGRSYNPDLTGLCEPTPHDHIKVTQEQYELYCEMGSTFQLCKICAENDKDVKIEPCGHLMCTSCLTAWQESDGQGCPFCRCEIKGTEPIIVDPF
Chain of c-Cbl (P22681 47-435): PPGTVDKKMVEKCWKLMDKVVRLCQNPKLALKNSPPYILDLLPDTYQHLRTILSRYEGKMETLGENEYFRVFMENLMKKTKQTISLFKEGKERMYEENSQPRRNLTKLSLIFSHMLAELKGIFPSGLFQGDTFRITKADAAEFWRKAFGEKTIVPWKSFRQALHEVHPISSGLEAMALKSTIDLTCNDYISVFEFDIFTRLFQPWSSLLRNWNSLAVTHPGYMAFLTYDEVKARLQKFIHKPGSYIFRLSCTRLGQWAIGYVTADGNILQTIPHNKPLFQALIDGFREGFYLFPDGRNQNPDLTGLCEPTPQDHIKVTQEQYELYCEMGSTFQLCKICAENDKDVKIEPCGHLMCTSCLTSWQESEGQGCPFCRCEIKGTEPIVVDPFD

Structure (SMILES)	IC50 (Cbl-b)	IC50 (c-Cbl)	(fold-selectivity) (c-Cbl)
CC(C)[C@@H]1CN(Cc2cc3c(c(C(F)(F)F)c2)CN(c2cccc(C4([C@@H](F)c5nncn5C)COC4)c2)C3=O)CCN1C [Compound 218, 2-(3-(3-((R)-fluoro(4-methyl-4H-1,2,4-triazol-3-yl)methyl)oxetan-3-yl)phenyl)-6-(((R)-3-isopropyl-4-methylpiperazin-1-yl)methyl)-4-(trifluoromethyl)isoindolin-1-one]	22 nM	29 nM	1.3x
CC(C)[C@H]1CNCCN1Cc1cc2c(c(C(F)(F)F)c1)CN(c1cccc(C3(Cc4nncn4C)CC(F)(F)C3)c1)C2=O [Compound 219, (S)-2-(3-(3,3-difluoro-1-((4-methyl-4H-1,2,4-triazol-3-yl)methyl)cyclobutyl)phenyl)-6-((2-isopropylpiperazin-1-yl)methyl)-4-(trifluoromethyl)isoindolin-1-one]	75 nM	84 nM	1.1x
C[C@@H]1CN(Cc2cc3c(c(C(F)(F)F)c2)CN(c2cccc(C4(Cc5nncn5C)CC(F)(F)C4)c2)C3=O)CCN1C [Compound 220, (R)-2-(3-(3,3-difluoro-1-((4-methyl-4H-1,2,4-triazol-3-yl)methyl)cyclobutyl)phenyl)-6-((3,4-dimethylpiperazin-1-yl)methyl)-4-(trifluoromethyl)isoindolin-1-one]	34 nM	35 nM	1.0x
Cc1cnnn1CC1(c2cccc(N3Cc4c(cc(CN5CCN(C)C[C@@H]5C(C)C)cc4C(F)(F)F)C3=O)c2)COC1 [Compound 222, (S)-6-((2-Isopropyl-4-methylpiperazin-1-yl)methyl)-2-(3-(3-((5-methyl-1H-1,2,3-triazol-1-yl)methyl)oxetan-3-yl)phenyl)-4-(trifluoromethyl)isoindolin-1-one]	22 nM	26 nM	1.2x
CC(C)NCc1cc2c(c(C(F)(F)F)c1)CN(c1cccc(C3([C@@H](F)c4nncn4C)COC3)c1)C2=O [Compound 226, (R)-2-(3-(3-(fluoro(4-methyl-4H-1,2,4-triazol-3-yl)methyl)oxetan-3-yl)phenyl)-6-((isopropylamino)methyl)-4-(trifluoromethyl)isoindolin-1-one formate]	29 nM	33 nM	–
Cn1cnnc1[C@H](F)C1(c2cccc(N3Cc4c(cc(CNC5CCC5)cc4C(F)(F)F)C3=O)c2)COC1 [Compound 227, (R)-6-((Cyclobutylamino)methyl)-2-(3-(3-(fluoro(4-methyl-4H-1,2,4-triazol-3-yl)methyl)oxetan-3-yl)phenyl)-4-(trifluoromethyl)isoindolin-1-one formate]	16 nM	13 nM	–
CCCNCc1cc2c(c(C(F)(F)F)c1)CN(c1cccc(C3([C@@H](F)c4nncn4C)COC3)c1)C2=O [Compound 228, (R)-2-(3-(3-(fluoro(4-methyl-4H-1,2,4-triazol-3-yl)methyl)oxetan-3-yl)phenyl)-6-((propylamino)methyl)-4-(trifluoromethyl)isoindolin-1-one formate]	12 nM	96 nM	–
CCNc1cc(C2(Cc3nncn3C)CC(F)(F)C2)cc(N2Cc3c(cc(CN4CCN(C)C[C@@H]4C(C)C)cc3C(F)(F)F)C2=O)n1 [Compound 236, (S)-2-(4-(3,3-difluoro-1-((4-methyl-4H-1,2,4-triazol-3-yl)methyl)-cyclobutyl)-6-(ethylamino)pyridin-2-yl)-6-((2-isopropyl-4-methylpiperazin-1-yl)methyl)-4-(trifluoromethyl)isoindolin-1-one formate]	7.1 nM	8 nM	–
Cc1cn[nH]c1C(F)C1(c2cccc(N3Cc4c(cc(CN5CCN(C)C[C@@H]5C(C)C)cc4C(F)(F)F)C3=O)c2)COC1 (stereo partly drawn) [Compound 237, 2-(3-(3-(fluoro(4-methyl-1H-pyrazol-5-yl)methyl)oxetan-3-yl)-phenyl)-6-(((S)-2-isopropyl-4-methylpiperazin-1-yl)methyl)-4-(trifluoromethyl)isoindolin-1-one]	100 nM	180 nM	(1.8x)

The remaining compounds from weak to strong by IC50 (Cbl-b), led by results:

IC50 (Cbl-b)	IC50 (c-Cbl)	(fold-selectivity) (c-Cbl)	Structure (SMILES)
17 nM	20 nM	1.2x	CC(C)[C@H]1CNCCN1Cc1cc2c(c(C(F)(F)F)c1)CN(c1cccc(C3([C@H](F)c4nncn4C)CCC3)c1)C2=O [Compound 217, 2-(3-(1-((S)-fluoro(4-methyl-4H-1,2,4-triazol-3-yl)methyl)cyclobutyl)phenyl)-6-(((S)-2-isopropylpiperazin-1-yl)methyl)-4-(trifluoromethyl)isoindolin-1-one]
15 nM	15 nM	1.0x	CC(C)[C@H]1CN(C)CCN1Cc1cc2c(c(C(F)(F)F)c1)CN(c1cccc(C3(C(F)(F)c4nncn4C)CC3)c1)C2=O [Compound 221, (S)-2-(3-(1-(Difluoro(4-methyl-4H-1,2,4-triazol-3-yl)methyl)cyclopropyl)phenyl)-6-((2-isopropyl-4-methylpiperazin-1-yl)methyl)-4-(trifluoromethyl)isoindolin-1-one]
15 nM	21 nM	(1.4x)	Cn1cnnc1C(F)(F)C1(c2cccc(N3Cc4c(cc(CNC5(C)CCC5)cc4C(F)(F)F)C3=O)c2)CCC1 [Compound 235, 2-(3-(1-(difluoro(4-methyl-4H-1,2,4-triazol-3-yl)methyl)cyclobutyl)phenyl)-6-(((1-methylcyclobutyl)amino)methyl)-4-(trifluoro-methyl)isoindolin-1-one]
13 nM	11 nM	(0.84x)	Cn1cnnc1[C@H](F)C1(c2cccc(N3Cc4c(cc(CNC5(C)CCC5)cc4C(F)(F)F)C3=O)c2)COC1 [Compound 230, (R)-2-(3-(3-(fluoro(4-methyl-4H-1,2,4-triazol-3-yl)methyl)oxetan-3-yl)phenyl)-6-(((1-methylcyclobutyl)amino)methyl)-4-(trifluoromethyl)isoindolin-1-one]
12 nM	10 nM	(0.83x)	Cn1cnnc1[C@H](F)C1(c2cccc(N3Cc4c(cc(CNC5(C)CC5)cc4C(F)(F)F)C3=O)c2)COC1 [Compound 229, (R)-2-(3-(3-(fluoro(4-methyl-4H-1,2,4-triazol-3-yl)methyl)oxetan-3-yl)phenyl)-6-(((1-methylcyclopropyl)amino)methyl)-4-(trifluoromethyl)isoindolin-1-one]
11 nM	8 nM	(0.80x)	Cn1cnnc1CC1(c2cccc(N3Cc4c(cc(CNC5(C)CCC5)cc4C(F)(F)F)C3=O)c2)CC(F)(F)C1 [Compound 232, 2-(3-(3,3-difluoro-1-((4-methyl-4H-1,2,4-triazol-3-yl)methyl)-cyclobutyl)phenyl)-6-(((1-methylcyclobutyl)amino)methyl)-4-(trifluoromethyl)isoindolin-1-one]
11 nM	11 nM	(1.0x)	Cn1cnnc1CC1(c2cc(NCC3CC3)nc(N3Cc4c(cc(CNC5(C)CCC5)cc4C(F)(F)F)C3=O)c2)CCC1 [Compound 238, 2-(6-((cyclopropylmethyl)amino)-4-(1-((4-methyl-4H-1,2,4-triazol-3-yl)methyl)cyclobutyl)pyridin-2-yl)-6-(((1-methylcyclobutyl)amino)methyl)-4-(trifluoromethyl)-isoindolin-1-one]
9.8 nM	81 nM	(0.82x)	Cn1cnnc1[C@H](F)C1(c2cccc(N3Cc4c(cc(CNCCCF)cc4C(F)(F)F)C3=O)c2)COC1 [Compound 231, (R)-2-(3-(3-(fluoro(4-methyl-4H-1,2,4-triazol-3-yl)methyl)oxetan-3-yl)phenyl)-6-(((3-fluoropropyl)amino)methyl)-4-(trifluoromethyl)isoindolin-1-one]
8.3 nM	7.1 nM	(0.94x)	CC(C)[C@H]1CN(C)CCN1Cc1cc2c(c(C(F)(F)F)c1)CN(c1cc(C3([C@@H](F)c4nncn4C)CCC3)cc(NCCO)n1)C2=O [Compound 233, 2-(4-(1-((R)-fluoro(4-methyl-4H-1,2,4-triazol-3-yl)methyl)cyclobutyl)-6-((2-hydroxyethyl)amino)pyridin-2-yl)-6-(((S)-2-isopropyl-4-methyl-piperazin-1-yl)methyl)-4-(trifluoromethyl)isoindolin-1-one]
8 nM	4.8 nM	0.60x	CC(C)[C@H]1CNCCN1Cc1cc2c(c(C(F)(F)F)c1)CN(c1cccc(C3([C@@H](F)c4nncn4C)CCC3)c1)C2=O [Compound 216, 2-(3-(1-((R)-fluoro(4-methyl-4H-1,2,4-triazol-3-yl)methyl)cyclobutyl)phenyl)-6-(((S)-2-isopropylpiperazin-1-yl)methyl)-4-(trifluoromethyl)isoindolin-1-one]
7.5 nM	5 nM	0.66x	CC(C)[C@H]1CN(C)CCN1Cc1cc2c(c(C(F)(F)F)c1)CN(c1cccc(C3(Cc4nncn4C)CC(F)(F)C3)c1)C2=O [Compound 215, (S)-2-(3-(3,3-difluoro-1-((4-methyl-4H-1,2,4-triazol-3-yl)methyl)cyclobutyl)phenyl)-6-((2-isopropyl-4-methylpiperazin-1-yl)methyl)-4-(trifluoromethyl)isoindolin-1-one]
7.2 nM	8.5 nM	(1.2x)	CC(C)[C@H]1CN(C)CCN1Cc1cc2c(c(C(F)(F)F)c1)CN(c1cc(C3([C@H](F)c4nncn4C)CCC3)cc(NCCO)n1)C2=O [Compound 234, 2-(4-(1-((S)-fluoro(4-methyl-4H-1,2,4-triazol-3-yl)methyl)cyclobutyl)-6-((2-hydroxyethyl)amino)pyridin-2-yl)-6-(((S)-2-isopropyl-4-methylpiperazin-1-yl)methyl)-4-(trifluoromethyl)isoindolin-1-one]
